# Results published in patent US20230398130A1, “METHODS AND COMPOSITIONS FOR DIFFERENTIATING STEM CELLS” (Massachusetts Institute of Technology, priority 2020, published 2023).
# Assays:
# [1] = test system: ISC-enriched organoids; experiment: Primary screen, 384-well 2.5-D organoid differentiation (ENR+CD, 6 days): carbachol-induced lysozyme secretion (LYZ.S); type: cell-based, murine; conditions: primary screen; for Dose.FC.LYZ.S: FC vs plate median; for Z.LYZ.S: standard z score; for SSMD.LYZ.S: strictly standardized mean difference
# Text: (§1) High-throughput screening.
# [2] = test system: ISC-enriched organoids; experiment: Primary screen, 384-well 2.5-D organoid differentiation (ENR+CD, 6 days): basal lysozyme secretion (LYZ.NS); type: cell-based, murine; conditions: primary screen; for Dose.FC.LYZ.NS: FC vs plate median; for SSMD.LYZ.NS: strictly standardized mean difference
# Text: as §1
# [3] = test system: ISC-enriched organoids; experiment: Primary screen, 384-well 2.5-D organoid differentiation (ENR+CD, 6 days, Target Selective Inhibitor Library, vs whole-plate median): ATP (CellTiter-Glo 3D, CTG); conditions: primary screen; for Dose.FC.CTG: FC vs plate median; for SSMD.CTG: strictly standardized mean difference
# [4] = dose 0.08 uM, standard z score of FC
# [5] = dose 0.40 uM, standard z score of FC
# [6] = dose 2.00 uM, standard z score of FC
# [7] = dose 10.00 uM, standard z score of FC
# [8] = 1st of the 4 dose lines of the treatment (dose not given)
# [9] = 2nd of the 4 dose lines of the treatment (dose not given)
# [10] = 3rd of the 4 dose lines of the treatment (dose not given)
# [11] = 4th of the 4 dose lines of the treatment (dose not given)
# [12] = Dose 10.00 uM, standard z score
smiles,measurement,setting,value
COc1ccnc2[nH]cc(C(=O)C(=O)N3CCN(C(=O)c4ccccc4)C[C@H]3C)c12 [BMS-378806],Dose.FC.LYZ.S,"[1]; dose 0.08 uM, ENR+CD 6 days",0.159 log 2 fold change
same,Dose.FC.LYZ.S,"[1]; dose 0.40 uM, ENR+CD 6 days",0.007 log 2 fold change
same,Dose.FC.LYZ.S,"[1]; dose 2.00 uM, ENR+CD 6 days",−0.142 log 2 fold change
same,Dose.FC.LYZ.S,"[1]; dose 10.00 uM, ENR+CD 6 days",−0.322 log 2 fold change
same,Dose.FC.LYZ.NS,"[2]; dose 0.08 uM, ENR+CD 6 days",0.141 log 2 fold change
same,Z.LYZ.NS,[2]; [4],1.231
same,Dose.FC.LYZ.NS,"[2]; dose 0.40 uM, ENR+CD 6 days",−0.007 log 2 fold change
same,Z.LYZ.NS,[2]; [5],−0.061
same,Dose.FC.LYZ.NS,"[2]; dose 2.00 uM, ENR+CD 6 days",−0.100 log 2 fold change
same,Z.LYZ.NS,[2]; [6],−0.870
same,Dose.FC.LYZ.NS,"[2]; dose 10.00 uM, ENR+CD 6 days",−0.227 log 2 fold change
same,Z.LYZ.NS,[2]; [7],−1.977
same,Dose.FC.CTG,"[3]; dose 0.08 uM, ENR+CD 6 days",0.233 log 2 fold change
same,Z.CTG,[3]; [4],0.557
same,Dose.FC.CTG,"[3]; dose 0.40 uM, ENR+CD 6 days",0.102 log 2 fold change
same,Z.CTG,[3]; [5],0.243
same,Dose.FC.CTG,"[3]; dose 2.00 uM, ENR+CD 6 days",−0.289 log 2 fold change
same,Z.CTG,[3]; [6],−0.691
same,Dose.FC.CTG,"[3]; dose 10.00 uM, ENR+CD 6 days",−1.155 log 2 fold change
same,Z.CTG,[3]; [7],−2.758
"Cc1c(C(=O)Nc2ccc(N3C[C@@H](C)O[C@@H](C)C3)nc2)cccc1-c1ccc(OC(F)(F)F)cc1 [LDE225 (NVP-LDE225, Erismodegib)]",Dose.FC.LYZ.S,[1]; Dose 0.08 uM,0.095 log 2 fold change
same,Dose.FC.LYZ.S,[1]; Dose 0.40 uM,0.074 log 2 fold change
same,Dose.FC.LYZ.S,[1]; Dose 2.00 uM,0.002 log 2 fold change
same,Dose.FC.LYZ.S,[1]; Dose 10.00 uM,0.006 log 2 fold change
same,Z.LYZ.S,[1]; [8],0.613
same,Z.LYZ.S,[1]; [9],0.481
same,Z.LYZ.S,[1]; [10],0.013
same,Z.LYZ.S,[1]; [11],0.038
same,SSMD.LYZ.S,[1]; [8],0.704
same,SSMD.LYZ.S,[1]; [9],0.415
same,SSMD.LYZ.S,[1]; [10],0.013
same,SSMD.LYZ.S,[1]; [11],0.025
same,Dose.FC.LYZ.NS,[2]; Dose 0.08 uM,0.085 log 2 fold change
same,Z.LYZ.NS,"[2]; Dose 0.08 uM, standard z score",0.739
same,Dose.FC.LYZ.NS,[2]; Dose 0.40 uM,0.101 log 2 fold change
same,Z.LYZ.NS,"[2]; Dose 0.40 uM, standard z score",0.881
same,Dose.FC.LYZ.NS,[2]; Dose 2.00 uM,0.011 log 2 fold change
same,Z.LYZ.NS,"[2]; Dose 2.00 uM, standard z score",0.094
same,Dose.FC.LYZ.NS,[2]; Dose 10.00 uM,0.049 log 2 fold change
same,Z.LYZ.NS,[2]; [12],0.426
same,SSMD.LYZ.NS,[2]; [8],0.869
same,SSMD.LYZ.NS,[2]; [9],0.731
same,SSMD.LYZ.NS,[2]; [10],0.074
same,SSMD.LYZ.NS,[2]; [11],0.268
same,Dose.FC.CTG,[3]; Dose 0.08 uM,0.107 log 2 fold change
same,Z.CTG,"[3]; Dose 0.08 uM, standard z score",0.255
same,Dose.FC.CTG,[3]; Dose 0.40 uM,0.067 log 2 fold change
same,Z.CTG,"[3]; Dose 0.40 uM, standard z score",0.159
same,Dose.FC.CTG,[3]; Dose 2.00 uM,0.229 log 2 fold change
same,Z.CTG,"[3]; Dose 2.00 uM, standard z score",0.546
same,Dose.FC.CTG,[3]; Dose 10.00 uM,−0.001 log 2 fold change
same,Z.CTG,[3]; [12],−0.002
same,SSMD.CTG,[3]; [8],0.313
same,SSMD.CTG,[3]; [9],0.163
same,SSMD.CTG,[3]; [10],0.681
same,SSMD.CTG,[3]; [11],−0.001
Cc1cnc(NC(=O)Nc2cc(Br)c(C)cc2OC[C@@H]2CNCCO2)cn1 [LY2603618],Dose.FC.LYZ.S,[1]; Dose 0.08 uM,0.009 log 2 fold change
same,Dose.FC.LYZ.S,[1]; Dose 0.40 uM,−0.147 log 2 fold change
same,Dose.FC.LYZ.S,[1]; Dose 2.00 uM,−0.269 log 2 fold change
same,Dose.FC.LYZ.S,[1]; Dose 10.00 uM,−0.356 log 2 fold change
same,Z.LYZ.S,[1]; [8],0.056
same,Z.LYZ.S,[1]; [9],−0.953
same,Z.LYZ.S,[1]; [10],−1.737
same,Z.LYZ.S,[1]; [11],−2.300
same,SSMD.LYZ.S,[1]; [8],0.065
same,SSMD.LYZ.S,[1]; [9],−0.885
same,SSMD.LYZ.S,[1]; [10],−1.421
same,SSMD.LYZ.S,[1]; [11],−1.890
same,Dose.FC.LYZ.NS,[2]; Dose 0.08 uM,−0.005 log 2 fold change
same,Z.LYZ.NS,"[2]; Dose 0.08 uM, standard z score",−0.046
same,Dose.FC.LYZ.NS,[2]; Dose 0.40 uM,−0.091 log 2 fold change
same,Z.LYZ.NS,"[2]; Dose 0.40 uM, standard z score",−0.791
same,Dose.FC.LYZ.NS,[2]; Dose 2.00 uM,−0.193 log 2 fold change
same,Z.LYZ.NS,"[2]; Dose 2.00 uM, standard z score",−1.685
same,Dose.FC.LYZ.NS,[2]; Dose 10.00 uM,−0.233 log 2 fold change
same,Z.LYZ.NS,[2]; [12],−2.026
same,SSMD.LYZ.NS,[2]; [8],−0.044
same,SSMD.LYZ.NS,[2]; [9],−0.697
same,SSMD.LYZ.NS,[2]; [10],−1.609
same,SSMD.LYZ.NS,[2]; [11],−1.826
same,Dose.FC.CTG,[3]; Dose 0.08 uM,−0.004 log 2 fold change
same,Z.CTG,"[3]; Dose 0.08 uM, standard z score",−0.010
same,Dose.FC.CTG,[3]; Dose 0.40 uM,−0.238 log 2 fold change
same,Z.CTG,"[3]; Dose 0.40 uM, standard z score",−0.567
same,Dose.FC.CTG,[3]; Dose 2.00 uM,−0.396 log 2 fold change
same,Z.CTG,"[3]; Dose 2.00 uM, standard z score",−0.946
same,Dose.FC.CTG,[3]; Dose 10.00 uM,−0.983 log 2 fold change
same,Z.CTG,[3]; [12],−2.347
same,SSMD.CTG,[3]; [8],−0.013
same,SSMD.CTG,[3]; [9],−0.880
same,SSMD.CTG,[3]; [10],−1.281
same,SSMD.CTG,[3]; [11],−2.490
